# The supplement of paper PMC10949913
# “And” between values parts separate entries of the source, which are not always exact repeats. Equal values may be shown once.
# Experiments:
# Assay in all cases: area under concentration-response curve (viability) (AUC (a.u.)); higher = less active
# Settings in all cases: 48 h
# [1] = tested on: NCI-H295R
# In short: (§1)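 Cells from three adrenocortical carcinoma lines were seeded at 500–1,000 cells/well in 5 µL medium in 1,536-well plates. Each library compound was added as 23 nL at 11 concentrations, and after 48 h CellTiter-Glo was added for 15 minutes at room temperature before reading luminescence. Plate-wise normalisation to vehicle and empty-well controls preceded curve fitting. AC50 and area under the curve were calculated only for inhibitory or non-responding curve classes.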
# [2] = tested on: CU-ACC1
# In short: as §1
# [3] = tested on: CU-ACC2
# In short: as §1
SMILES,area under concentration-response curve [1],area under concentration-response curve [2],area under concentration-response curve [3]
CN(Cc1ccccc1)C(=O)c1ccc([S+](=O)([O-])Nc2ccccc2)cc1,519,491,550
COCCCc1sc(-c2ccccc2)nc1C(=O)Nc1ccccc1-c1nc2cc(CN3CCCC3)cnc2s1,567,563,564
CC1=CC=C2\N=C/3N(CC[C@@]3(O)C(=O)C2=C1)C4=CC=CC=C4,552,537,616
CC(N[C@H]1C[C@@H]1c1ccccc1)c1ccc2c(c1)OCCO2 (stereo partly specified),432,432,453
C[C@@H]1C[C@H]2[C@@H]3CCC\4=C\C(=O)\C=C/[C@]4(C)[C@@]3(F)[C@@H](O)C[C@]2(C)[C@@]1(O)C(=O)CO,481,515,588
O=C(Cc1ccc(-c2ccc(OCCN3CCOCC3)cc2)cn1)NCc1ccccc1,493,397,531
O=C(O)c1cc(O)c2c(c1)C(=O)c1cccc(O)c1C2=O,582,529,622
COC[C@@H](c1ccc(C(F)(F)F)cc1)N1CCN(C2(C)CCN(C(=O)c3c(C)ncnc3C)CC2)C[C@@H]1C,513,501,541
Cn1cc(-c2c[nH]c3ncnc(N4CCOCC4)c23)cn1,576,543,610
CC1=C(/C=C/C(C)=C/C=C/C(C)=C/C(=O)O)C(C)(C)CCC1,476,503,592
N#CC1(c2ccc(NC(=O)c3cccnc3NCc3ccncc3)cc2)CCCC1,545,547,531
OC[C@H]1O[C@@H](S[C@@H]2O[C@H](CO)[C@H](O)[C@H](n3cc(-c4cccc(F)c4)nn3)[C@H]2O)[C@H](O)[C@@H](n2cc(-c3cccc(F)c3)nn2)[C@H]1O,547,507,590
C=C(C)[C@@H]1CC[C@]2(C)CC[C@]3(C)[C@H](CC[C@@H]4[C@@]5(C)CC[C@H](O)C(C)(C)[C@@H]5CC[C@]43C)[C@@H]12,551,484,582
Cc1c(OCC(F)(F)F)ccnc1C[S+]([O-])c1nc2ccccc2[nH]1 (stereo unspecified),571,526,624
C=C1[C@H](OC(=O)/C=C(\C)CC)C[C@@H](C(C)C)[C@@H]2[C@H]([C@@H](C)OC(C)=O)C(=O)C[C@@H]12,557,527,617
CCCOc1ccc(C(=O)OCCN(CC)CC)cc1N,481,377,530
OC[C@H]1O[C@H](C[C@@H]1O)N2\C=C(\I)C(=O)NC2=O,501,496,543
CCN(CC)CCOc1ccc(Cc2ccccc2)cc1,503,454,526
OC[C@H]1O[C@@H](O[C@@H]2[C@@H](CO)O[C@](O)(CO)[C@H]2O)[C@H](O)[C@@H](O)[C@H]1O,532,508,569
Nc1n[nH]c2nnc(-c3c(-c4ccccc4)nn4ccccc34)cc12,515,489,595
C[C@]12CCC3[C@@H](CC[C@H]4NC(=O)\C=C/[C@]34C)[C@@H]1CC[C@@H]2C(=O)NC5=CC(=CC=C5C(F)(F)F)C(F)(F)F (stereo partly specified),578,557,645
NC(=O)c1cccc(N)c1,595,582,656
CC(=O)OCCN1C(=O)c2c(C)nc3ccc([S+](=O)([O-])N4CCOCC4)cc3c2C1=O,581,547,653
Cc1cc(O)c2c(c1)C(=O)c1cc(O)cc(O)c1C2=O,498,471,521

SMILES,area under concentration-response curve [1],area under concentration-response curve [2],area under concentration-response curve [3]
COc1cc2c(cc1OC)CN(CCc1ccc(NC(=O)c3cc(OC)c(OC)cc3NC(=O)c3cnc4ccccc4c3)cc1)CC2,569,560,640
CC1=C(CC(=O)O)c2cc(F)ccc2/C1=C\c1ccc([S+](C)[O-])cc1 (stereo unspecified),573,526,647
CNC[C@H](O)[C@@H](O)[C@H](O)[C@H](O)CO,547,421,542
CCOc1cc(C(=O)Nc2ccc(Cl)c(-c3nc4ccccc4[nH]3)c2)cc(OCC)c1OCC,549,477,618
O=NN(CCCl)C(=O)NCCCl,466,454,522
CN(CCOc1ccc(C[C@H](Nc2ccccc2C(=O)c2ccccc2)C(=O)O)cc1)c1ccccn1,388 and 454,429 and 437,413
CC(=O)OCC(=O)[C@@]1(O)CC[C@H]2[C@@H]3CCC/4=C/C(=O)/C=C\[C@]4(C)[C@H]3[C@@H](O)C[C@]12C,506,460,471
ClC1=C(N\C2=N\CCN2)C3=NSN=C3C=C1,541,412,609
CCOP(=O)(OCC)C(C)NC(=O)N(CCCl)N=O (stereo unspecified),510,488,540
C=C[C@H]1CN2CCC1C[C@@H]2C(O)c1ccnc2ccc(OC)cc12 (stereo partly specified),504,509,595
O=C1\C=C(/OC2=C1C=CC=C2C3=CC=CC=C3)N4CCOCC4,515,498,550
O=C1CCc2ccc(OCCCCN3CCN(c4cccc(Cl)c4Cl)CC3)cc2N1,544,468,593
Cc1c(NC(=O)c2cc(C(N)=O)nc3cc(F)ccc23)c(C(F)(F)F)nn1Cc1ccc(C(C)(C)C)cc1,533,506,589
N=C(N)c1ccc2[nH]c(-c3cc(CC(=O)N[C@@H](CC(=O)O)C(=O)O)cc(-c4cc([S+](N)(=O)[O-])ccc4O)c3O)nc2c1,562,595,620
COC/1=C/C=C2\C(=C/C1=O)[C@H](CCC3=CC(=C(OC)C(=C23)OC)OC)NC(C)=O,480,536,548
COc1cccc(Nc2ncnn3ccc(CN4CC[C@@H](N)[C@H](O)C4)c23)c1,552,399,534
Cc1cc(-c2cc(OC(=O)c3ccccc3)ccc2Cl)cc2nnc(Nc3ccc(OCCN4CCCC4)cc3)nc12,612,–,664
Nc1nc(NCCNc2ncc(-n3ccnc3)c(-c3ccc(Cl)cc3Cl)n2)ccc1[N+](=O)[O-],536,–,485
Cc1c(-c2c(-c3ccc(F)o3)sc3ncnc(O[C@@H](Cc4ccccc4OCc4ccnn4CC(F)(F)F)C(=O)O)c23)ccc(OCCN2CCN(C)CC2)c1Cl,529,–,600
O=C(NC[C@H](O)CN1CCc2ccccc2C1)c1cc(NC2COC2)ncn1,429,–,367
O=C(NC[C@H]1CN(c2ccc(N3CCOCC3=O)cc2)C(=O)O1)c1ccc(Cl)s1,557,–,605
Cn1c(-c2ccccc2C(F)(F)F)nnc1C12CCC(c3noc(C4CC(F)(F)C4)n3)(CC1)CC2,546,–,594
OC(=O)C/1=C/C(=O)NC(=O)N1,529,–,530
Nc1cccc([S+](=O)([O-])N2CCCN([S+](=O)([O-])c3ccc4c(c3)OCCO4)CC2)c1,546,–,634
